According to article PMC7044277 (Nature Communications, 2020):
Values joined by “and” are separate entries in the source; they are usually repeats but may differ in a detail not shown here. Identical values can stand only once.

Key:
DRD4 (D4.4 variant) = target: T1, DRD4 (D4.4 variant) (Homo sapiens, UniProt P21917); experiment: β-arrestin2 recruitment (Tango); assay type: cell-based; conditions: for Fig_S10c concentration-response source data, compound alone (replicates): agonist mode
T1 sequence (P21917 1-419): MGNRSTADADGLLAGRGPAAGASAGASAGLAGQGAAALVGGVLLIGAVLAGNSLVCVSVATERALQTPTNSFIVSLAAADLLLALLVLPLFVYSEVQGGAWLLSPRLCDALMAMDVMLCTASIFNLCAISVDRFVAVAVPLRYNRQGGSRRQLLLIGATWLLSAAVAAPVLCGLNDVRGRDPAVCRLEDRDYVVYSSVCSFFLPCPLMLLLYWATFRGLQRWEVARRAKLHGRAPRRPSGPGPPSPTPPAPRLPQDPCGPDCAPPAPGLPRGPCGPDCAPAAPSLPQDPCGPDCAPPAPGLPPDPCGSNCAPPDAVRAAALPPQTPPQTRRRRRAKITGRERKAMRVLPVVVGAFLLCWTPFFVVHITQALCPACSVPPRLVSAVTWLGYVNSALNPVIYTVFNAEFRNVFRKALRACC

5HT1E = 5HT1E (Homo sapiens, UniProt P28566); experiment: β-arrestin2 recruitment (Tango); assay type: cell-based; conditions: Fig_S10i
[1] = test system: serotonin receptor of Fig_S10g (subtype not named); experiment: β-arrestin2 recruitment (Tango), agonist activity, panel Fig_S10g (serotonin as reference; receptor not given); assay type: cell-based, human
5HT2A = 5HT2A (Homo sapiens, UniProt P28223); experiment: β-arrestin2 recruitment (Tango); assay type: cell-based; conditions: single replicate values
Sequence of 5HT2A (P28223 whole entry): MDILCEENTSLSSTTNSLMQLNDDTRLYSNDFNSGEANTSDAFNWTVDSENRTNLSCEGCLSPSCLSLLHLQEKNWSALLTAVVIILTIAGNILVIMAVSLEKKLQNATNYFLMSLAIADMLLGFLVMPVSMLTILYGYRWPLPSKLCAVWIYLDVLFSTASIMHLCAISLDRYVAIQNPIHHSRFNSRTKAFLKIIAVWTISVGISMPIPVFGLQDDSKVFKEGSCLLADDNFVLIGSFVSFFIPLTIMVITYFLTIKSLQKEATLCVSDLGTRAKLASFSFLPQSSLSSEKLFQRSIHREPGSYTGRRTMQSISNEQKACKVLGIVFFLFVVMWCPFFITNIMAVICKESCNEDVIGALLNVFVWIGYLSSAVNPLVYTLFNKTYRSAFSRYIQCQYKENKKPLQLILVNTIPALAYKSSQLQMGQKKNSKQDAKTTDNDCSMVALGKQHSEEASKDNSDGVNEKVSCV

Sequence of 5HT1E (P28566 whole entry): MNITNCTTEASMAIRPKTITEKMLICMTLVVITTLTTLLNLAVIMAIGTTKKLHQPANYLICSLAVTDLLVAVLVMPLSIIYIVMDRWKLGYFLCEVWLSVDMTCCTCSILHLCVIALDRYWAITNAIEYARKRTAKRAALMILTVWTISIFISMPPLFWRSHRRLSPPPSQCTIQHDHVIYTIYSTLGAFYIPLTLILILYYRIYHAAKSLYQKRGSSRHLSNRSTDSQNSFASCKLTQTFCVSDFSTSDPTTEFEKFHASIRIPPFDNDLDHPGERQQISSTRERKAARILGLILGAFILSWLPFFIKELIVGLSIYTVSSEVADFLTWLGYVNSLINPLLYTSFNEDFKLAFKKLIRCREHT

## CCOc1cccc2cc([C@@H](C)NCC3(O)CCCCC3)oc12 [O4RE6]
DRD4 (D4.4 variant); DRD4, Tango, read-out: EC50 ± SEM
  EC50: > 10 µM
DRD4 (D4.4 variant); Log[Drug] -5
  β-arrestin2 recruitment response at DRD4 (source data, replicate values): 6.217 and 2.763 and 2.001 and 1.287 and 1.775 and 4.058 and 4.003 and 0.06427 and 0.2106
  Fig_S10c concentration-response source data, compound alone (replicates): 5.394 and 8.31 and 11.4353 and 9.275 and 2.582 and 4.074 and 8.729 and 7.933 and 14.0378
DRD4 (D4.4 variant); Log[Drug] -5.52
  β-arrestin2 recruitment response at DRD4 (source data, replicate values): 2.6039 and -1.106 and -1.946 and -0.4701 and 1.404 and 2.39 and 0.8979 and 0.0552 and 0.08381
  Fig_S10c concentration-response source data, compound alone (replicates): 1.202 and 2.837 and 2.321 and 1.635 and 2.366 and 3.787 and 1.627 and 3.207 and 0.6688
DRD4 (D4.4 variant); Log[Drug] -6
  β-arrestin2 recruitment response at DRD4 (source data, replicate values): 3.584 and -1.188 and -0.584 and -0.6588 and 0.8796 and 1.83 and 0.7762 and 0.03516 and 0.171
  Fig_S10c concentration-response source data, compound alone (replicates): 2.086 and 2.7849 and 3.425 and -0.09437 and 0.02849 and 3.5238 and 0.3966 and 3.288 and 1.462
DRD4 (D4.4 variant); Log[Drug] -6.52
  β-arrestin2 recruitment response at DRD4 (source data, replicate values): 1.007 and 4.325 and 1.323 and -0.8974 and 1.527 and -0.05366 and -0.1047 and 0.03541 and 0.08444
  Fig_S10c concentration-response source data, compound alone (replicates): 1.505 and 1.478 and 5.593 and -1.936 and -0.8155 and 0.5983 and 2.508 and 1.037 and -0.4712
DRD4 (D4.4 variant); Log[Drug] -7
  β-arrestin2 recruitment response at DRD4 (source data, replicate values): 1.079 and -1.731 and -1.221 and -1.369 and 0.6898 and 0.678 and 1.948 and 0.1059 and 0.1355
  Fig_S10c concentration-response source data, compound alone (replicates): 2.288 and 4.238 and 0.7634 and -1.02 and 3.3404 and -2.026 and 1.575 and 0.945 and -0.6741
DRD4 (D4.4 variant); Log[Drug] -7.52
  β-arrestin2 recruitment response at DRD4 (source data, replicate values): 0.371 and -1.716 and -1.784 and -0.5805 and -0.6243 and 1.534 and -0.4267 and 0.02533 and 0.04436
DRD4 (D4.4 variant); Log[Drug] -8
  β-arrestin2 recruitment response at DRD4 (source data, replicate values): 0.8799 and -0.7087 and -1.711 and -1.318 and -0.195 and -0.3626 and 1.952 and 0.0707 and 0.1967
DRD4 (D4.4 variant); Log[Drug] -8.52
  β-arrestin2 recruitment response at DRD4 (source data, replicate values): 1.656 and -1.517 and -1.8 and 0.5698 and 0.5353 and -0.6701 and 0.003927 and 0.031 and 0.0242
DRD4 (D4.4 variant); Log[Drug] -9
  β-arrestin2 recruitment response at DRD4 (source data, replicate values): 0.08244 and -0.5912 and 1.416 and -2.021 and 1.101 and 0.6872 and 0.9463 and -0.03415 and 0.05621
DRD4 (D4.4 variant); Log[Drug] -10.52
  β-arrestin2 recruitment response at DRD4 (source data, replicate values): 2.403
DRD4 (D4.4 variant); Log[Drug] -11
  β-arrestin2 recruitment response at DRD4 (source data, replicate values): 4.161 and -1.784 and -1.43 and 0.349 and 0.8023 and -0.5301 and 2.686 and -0.07952 and -0.04373
DRD4 (D4.4 variant); Log[Drug] -11.52
  β-arrestin2 recruitment response at DRD4 (source data, replicate values): 0.6452 and -1.9266 and -1.439 and -0.7995 and -0.6204 and 1.59 and -0.483 and -0.008444 and -0.04903
5HT1E; Log[Drug] -5.52
  β-arrestin2 recruitment response, agonist mode (single replicate values): -0.8838
5HT1E; Log[Drug] -6
  β-arrestin2 recruitment response, agonist mode (single replicate values): 5.169 and -3.421 and -7.045 and -2.335 and -9.923 and 2.004 and -14.6813 and -14.4526 and -10.0186
5HT1E; Log[Drug] -6.52
  β-arrestin2 recruitment response, agonist mode (single replicate values): 5.136 and -8.797 and -1.582 and 6.94 and -5.772 and 9.5977 and -9.147 and -14.4969 and -14.6019
5HT1E; Log[Drug] -7
  β-arrestin2 recruitment response, agonist mode (single replicate values): -9.403 and -3.356 and -7.031 and 6.361 and -8.019 and 5.611 and -6.317 and -9.482 and -17.1569
5HT1E; Log[Drug] -7.52
  β-arrestin2 recruitment response, agonist mode (single replicate values): -7.7314 and -4.654 and -9.0776 and 5.71 and 2.776 and -4.782 and -16.2446 and -11.396 and -8.341
5HT1E; Log[Drug] -8
  β-arrestin2 recruitment response, agonist mode (single replicate values): -0.303 and 2.682 and 0.8105 and -16.5035 and -1.474 and 1.2682 and -16.075 and -2.697 and -15.9171
5HT1E; Log[Drug] -8.52
  β-arrestin2 recruitment response, agonist mode (single replicate values): -6.877 and -0.9842 and -10.6793 and 4.799 and 9.189 and -4.891 and 2.59 and -7.1 and -6.491
5HT1E; Log[Drug] -9
  β-arrestin2 recruitment response, agonist mode (single replicate values): -3.28 and 6.173 and 0.4053 and -14.2337 and -0.6567 and 5.487 and -22.7397 and -14.6836 and -5.277
5HT1E; Log[Drug] -9.52
  β-arrestin2 recruitment response, agonist mode (single replicate values): -0.2537 and -8.594 and -3.456 and -0.4529 and -8.792 and -9.322 and -17.3288 and -4.524 and -7.744
5HT1E; Log[Drug] -10
  β-arrestin2 recruitment response, agonist mode (single replicate values): -3.52 and -2.38 and 3.183 and -31.9257 and 29.8123 and -9.337 and -10.0295 and -4.283 and -12.1769
5HT1E; Log[Drug] -10.52
  β-arrestin2 recruitment response, agonist mode (single replicate values): 0.1347 and 0.5117 and -4.0638 and -13.472 and -7.0659 and -13.7571 and -9.427 and -7.368 and -17.0465
5HT1E; Log[Drug] -11
  β-arrestin2 recruitment response, agonist mode (single replicate values): 7.882 and 2.36 and 5.579 and -8.103 and -1.831 and -9.017 and -8.127 and -1.8482 and -12.9803
[1]; Log[Drug] -6.52, drug alone
  response, single replicate of concentration-response curve: -0.2238
[1]; Log[Drug] -7, drug alone
  response, single replicate of concentration-response curve: -0.9957 and 0.7395 and -0.3731 and -4.075 and -6.459 and 6.257 and -6.235 and -15.3353 and -2.563
[1]; Log[Drug] -7.52, drug alone
  response, single replicate of concentration-response curve: 3.537 and -8.588 and -8.236 and 1.017 and -6.537 and 8.346 and -24.6047 and -9.735 and -3.961
[1]; Log[Drug] -8, drug alone
  response, single replicate of concentration-response curve: -8.838 and 5.045 and -3.835 and -6.3435 and -10.7922 and -4.261 and 1.209 and 10.8594 and -1.1998
[1]; Log[Drug] -8.52, drug alone
  response, single replicate of concentration-response curve: 7.317 and 3.662 and -0.2578 and 4.902 and -3.436 and -0.8135 and 0.3262 and -17.2923 and -3.276
[1]; Log[Drug] -9, drug alone
  response, single replicate of concentration-response curve: -7.333 and -6.074 and -4.492 and 7.736 and 5.892 and -7.036 and 12.8804 and 16.0838 and -14.0161
[1]; Log[Drug] -9.52, drug alone
  response, single replicate of concentration-response curve: 5.814 and -6.894 and -1.133 and -0.4282 and -3.469 and 10.7257 and -14.7529 and -4.735 and 6.229
[1]; Log[Drug] -10, drug alone
  response, single replicate of concentration-response curve: 4.7653 and -6.922 and -6.74 and 0.01564 and -8.293 and -7.394 and -5.827 and 22.4235 and -13.92
[1]; Log[Drug] -10.52, drug alone
  response, single replicate of concentration-response curve: -4.711 and -9.672 and -0.4245 and 5.467 and 12.0515 and -5.19 and -22.007 and -11.0399 and -21.0839
[1]; Log[Drug] -11, drug alone
  response, single replicate of concentration-response curve: -6.102 and 1.947 and -4.193 and 7.519 and 7.073 and 6.156 and 9.863 and -6.485 and 14.517
[1]; Log[Drug] -11.52, drug alone
  response, single replicate of concentration-response curve: -1.632 and -2.513 and -9.3706 and 4.84 and 6.766 and 9.126 and -22.9448 and -13.1075 and -5.3496
[1]; Log[Drug] -12, drug alone
  response, single replicate of concentration-response curve: -2.553 and 8.39 and 5.434 and 10.274 and 10.0549 and 1.613 and 2.42 and 0.1252 and -2.5423
5HT2A; Log[Drug] -6.52
  Fig_S10k dose-response, drug alone (agonist mode), β-arrestin2 recruitment: -0.1908
5HT2A; Log[Drug] -7
  Fig_S10k dose-response, drug alone (agonist mode), β-arrestin2 recruitment: 0.697 and 0.4035 and 0.09538 and 0.6532 and -1.18 and 3.874 and 0.7119 and 4.575 and 2.4436
5HT2A; Log[Drug] -7.52
  Fig_S10k dose-response, drug alone (agonist mode), β-arrestin2 recruitment: 0.4035 and -0.7777 and -0.1834 and -1.703 and -0.8871 and -1.1926 and 2.795 and 3.208 and 1.294
5HT2A; Log[Drug] -8
  Fig_S10k dose-response, drug alone (agonist mode), β-arrestin2 recruitment: 1.5774 and 2.458 and -0.4916 and -0.4094 and -2.089 and 0.5329 and 11.4772 and 3.9492 and 2.4436
5HT2A; Log[Drug] -8.52
  Fig_S10k dose-response, drug alone (agonist mode), β-arrestin2 recruitment: -0.8437 and 0.3668 and 0.9905 and -1.355 and 3.003 and -0.7312 and 3.002 and 2.824 and 3.026
5HT2A; Log[Drug] -9
  Fig_S10k dose-response, drug alone (agonist mode), β-arrestin2 recruitment: 16.8085 and 6.2069 and -0.2128 and 11.6986 and 0.5297 and -1.349 and 1.8808 and 2.833 and 2.6312
